{"source": "patent US11060715B2", "about": "“Ex vivo proliferation of epithelial cells” (PROPAGENIX INC., priority 2015, dated 2021)", "key": {"[1]": {"test_system": "bronchial epithelial cells", "assay": "Effect of calcium content on bronchial epithelial cells in KSFM plus A83-01 and Y-27632 (morphology, TEER)", "assay_type": "cell-based, human", "experimental": "Effects of culture media calcium content on cell behavior were assessed for epithelial cells cultured in KSFM plus A83-01 and Y-27632. Human bronchial epithelial cells were grown KSFM (with 90 μM CaCl2) plus A83-01 and Y-27632. These cells dispersed throughout the culture vessel (FIG. 28, left panel), and few cells formed intercellular connections, even when they were in close proximity to each other. […] Cells in the center of the patches tended to pile up, and boundaries between individual cells generally were not discernable. In certain instances, abnormal elongations formed between clusters.\nIn a further investigation, effects of culture media calcium content on intercellular junctions was assessed for bronchial epithelial cells cultured in KSFM plus A83-01 and Y-27632. Intercellular junctions were assessed according to paracellular flow of ions as measured by trans-epithelium electric resistance (TEER). […] Bronchial epithelial cells were plated on porous membrane support ([…], Corning, 354474) and maintained for 7 days when the membrane was covered with culture medium (submerged phase, grayed box in FIG. 29, top panel). On day 8, the medium was removed from the apical side of the membrane, and the cells were exposed to air to induce further differentiation. […]"}, "[2]": {"test_system": "human foreskin keratinocytes (HFK)", "assay": "Differentiation of keratinocytes at high CaCl2 in KSFM+A+Y (ZO-1 staining, TEER, H&E)", "assay_type": "cell-based", "experimental": "Specifically, late passage human foreskin keratinocytes (HFK) cultured in KSFM supplemented with 1 μM A83-01 and 5 μM Y-27632 (KSFM+A+Y) at low CaCl2 (90 μM) were allowed to reach confluence. The cells remained in the KSFM+A+Y conditions and the CaCl2 concentration was raised to 1.5 mM to induce differentiation.\nKeratinocytes established increasing transmembrane electric resistance (TEER) over time in air-liquid-interface differentiation, in the presence of high concentration (1.5 mM) of CaCl2 in KSFM plus A 83-01 and Y-27632. Specifically, human foreskin keratinocytes (HFK) previously cultured in KSFM supplemented with 1 μM A83-01 and 5 μM Y-27632 (KSFM+A+Y) at low CaCl2 (90 μM) were plated on a porous membrane support ([…], Corning, 354474) and maintained for 14 days. The cells were covered by culture medium (KSFM+A+Y and 1.5 mM of CaCl2) for the first day (submerged phase, grayed box in FIG. 34) and exposed to air for the remaining days.\nKeratinocytes formed an epidermal-like structure over time in air-liquid-interface differentiation, in the presence of high concentration (1.5 mM) of CaCl2 in KSFM plus A 83-01 and Y-27632. Specifically, human foreskin keratinocytes (HFK) previously cultured in KSFM supplemented with 1 μM A83-01 and 5 μM Y-27632 (KSFM+A+Y) at low CaCl2 (90 μM) were plated on a porous membrane support ([…], Corning, 354474) and maintained for 14 days. […]"}, "[3]": {"test_system": "human telomerase reverse transcriptase (hTERT) gene", "assay": "hTERT expression by quantitative real-time PCR in bronchial epithelial cells", "assay_type": "cell-based", "conditions": "KSFM", "experimental": "(§1) Total RNA was prepared using TRIzol® Plus RNA Purification Kit (Life Technologies, 12183-555) and PureLink® RNA Mini Kit (Life Technologies, 12183018A), following the manufacturer's instructions. One hundred nanogram total RNA was used for the determination of human telomerase reverse transcriptase (hTERT) expression using the TaqMan® RNA-to-CT™ 1-Step Kit (Life Technologies, 4392938), following the protocol provided by the supplier. hTERT primers and Taqman® probe used were as follows: forward primer, 5′-[…]-3′ (SEQ ID NO:7), reverse primer, 5′-[…]-3′ (SEQ ID NO:8) and Taqman® probe, 5′-[…]-3′ (SEQ ID NO:9).\n(§2) In this example, hTERT expression in epithelial cells was assessed in the presence of an ALK5 inhibitor, a Rho kinase inhibitor (i.e., a Rho-associated protein kinase inhibitor), or both. Expression of hTERT gene was examined by quantitative real-time PCR in bronchial epithelial cells and prostate epithelial cells. The cells were treated with an ALK5 inhibitor, A83-01, or a Rho kinase inhibitor (i.e., a Rho-associated protein kinase inhibitor), Y-27632, or both inhibitors, at different passages in KSFM."}, "[4]": {"test_system": "human telomerase reverse transcriptase (hTERT) gene", "assay": "hTERT expression by quantitative real-time PCR in prostate epithelial cells", "assay_type": "cell-based", "conditions": "KSFM", "experimental": "as §1, §2\nAs shown in FIG. 6A and FIG. 6B, prostate epithelial cells at early passage (p2) expressed low level of hTERT, which quickly diminished at passage 3 and became non-detectible by passage 5."}, "[5]": {"test_system": "prostate epithelial cells", "assay": "Plating efficiency of prostate epithelial cells in KSFM", "assay_type": "cell-based, human", "conditions": "regular tissue culture surface", "experimental": "(§3) Epithelial cells (prostate epithelial cells and bronchial epithelial cells) were plated at 3,000-10,000 viable cells/cm^2 in tissue culture vessels, using culture medium as indicated in Examples 2 to 5 and FIGS. 1 to 17, and incubated at 37° C. with 5% CO2. The medium was changed every 2 or 3 days. Cells were sub-cultured using standard trypsinization method when they were about 70-90% confluent. Total cell number was determined using the Countess II Automated Cell Counter (Life Technologies, AMQAX1000) following manufacturer's instructions.\n(§4) In this example, epithelial cell plating efficiency, i.e., number of cells that efficiently attach to the cell culture surfaces, continue to divide and grow into colonies, was examined under various conditions.\n(§5) However, those few cells that did attach continued to proliferate.\nMany prostate epithelial cells attached to regular tissue culture surface in the presence of both A83-01 and Y-27632 at day 2 after plating."}, "[6]": {"test_system": "bronchial epithelial cells", "assay": "Plating efficiency of bronchial epithelial cells in KSFM", "assay_type": "cell-based, human", "conditions": "regular tissue culture surface", "experimental": "as §3, §4, §5\nMany bronchial epithelial cells attached to regular tissue culture surface in the presence of both A83-01 and Y-27632 at day 2 after plating."}, "[7]": {"test_system": "prostate epithelial cells", "assay": "Growth (population doublings) of prostate epithelial cells in culture", "assay_type": "cell-based, human", "experimental": "as §3\n(§6) A formula used for the calculation of population doublings (PD) is presented in Equation A: n=3.32*(log Y−log I)+X Equation A where n=the final PD number at end of a given subculture, Y=the cell yield at the time of harvesting, I=the cell number used as inoculum to begin that subculture, and X=the doubling level of the inoculum used to initiate the subculture being quantitated.\n(§7) Prostate and bronchial epithelial cells were grown in KSFM in the presence of Rho kinase inhibitor (i.e., Rho-associated protein kinase inhibitor) Y-27632.\nTo examine the effects of additional in vitro and/or ex vivo growth conditions, prostate epithelial cells were grown in KSFM or PrEGM in the presence of media alone, ALK5 inhibitor A83-01, Rho kinase inhibitor (i.e., Rho-associated protein kinase inhibitor) Y-27632, or both (with or without collagen)."}, "[8]": {"test_system": "bronchial epithelial cells", "assay": "Growth (population doublings) of bronchial epithelial cells in culture", "assay_type": "cell-based, human", "experimental": "as §3, §6, §7\nSimilar to the experiment above, bronchial epithelial cells were grown in KSFM in the presence of media alone, ALK5 inhibitor A83-01, Rho kinase inhibitor (i.e., Rho-associated protein kinase inhibitor) Y-27632, or both (with or without collagen)."}, "[9]": {"test_system": "late passage prostate epithelial cells", "assay": "Proliferation of late passage prostate epithelial cells in KSFM plus compounds, 5 days", "assay_type": "cell-based, human", "experimental": "Stocks of certain chemicals used in the study were prepared by dissolving in DMSO to 10 mM. The chemical stocks were added to culture media to desired final concentrations, as described in Examples 2 to 5 and shown in FIGS. 1 to 17, from the time when cell culture was initiated.\nIn a control experiment with no added compound, there was minimum increase of cell numbers after 5 days.\nIn control experiment with no inhibitor added to KSFM, there was minimum increase of cell numbers after 5 days. […] As described above, these include Rho kinase inhibitors (i.e., Rho-associated protein kinase inhibitors) such as Y-27632, SR 3677, GSK 429286 and Thiazovivin; PAK1 inhibitor IPA-3; and myosin II inhibitor (i.e., non-muscle myosin II (NM II) inhibitor) Blebbistatin."}, "[10]": {"test_system": "keratinocytes", "assay": "Expansion of keratinocytes in KSFM supplemented with combinations of components", "assay_type": "cell-based, human", "conditions": "increasing doses, KSFM with EGF, isoproterenol, A 83-01 and rHA", "experimental": "In another experiment, keratinocytes were cultured in KSFM supplemented with various combinations of components.\nIn another experiment, keratinocytes were cultured in the presence of increasing doses of ROCK inhibitor (Y-27632) or Myosin II ATPase inhibitor (blebbistatin), in KSFM supplemented with EGF (0.5 ng/mL), isoproterenol (3 μM), A 83-01 (1 μM), and recombinant human serum albumin (expressed in rice; 100 μg/mL).\nIn another experiment, keratinocytes were cultured in the presence of increasing doses (between 10 nM to 2 μM) of retinoic acid receptors (RAR) antagonist BMS-453 or retinoic acid receptors (RAR) antagonist BMS-195614, in KSFM supplemented with EGF (0.5 ng/mL), isoproterenol (3 μM), A 83-01 (1 μM), and recombinant human serum albumin (expressed in rice; 100 μg/mL)."}, "[11]": {"test_system": "human foreskin keratinocytes (HFK) and human bronchial epithelial cells (HBEC)", "assay": "Cell growth with increasing isoproterenol in KSFM plus A83-01 and Y-27632, six days", "assay_type": "cell-based", "conditions": "in KSFM plus 1 μM A83-01 and 5 μM Y-27632, six days", "experimental": "In a further investigation, epithelial cell growth was assessed in the presence of a beta-adrenergic agonist (i.e., a beta-adrenergic receptor agonist). Human foreskin keratinocytes (HFK) and human bronchial epithelial cells (HBEC) were cultured in KSFM plus 1 μM A83-01 and 5 μM Y-27632, supplemented with increasing concentrations of isoproterenol (a beta-adrenergic receptor agonist that increases cytosolic cAMP levels). Cell numbers were counted after six days to calculate cell growth relative to control."}, "[12]": {"conditions": "KSFM, compound used alone, late passage"}}}
{"smiles": "[Ca+2].[Cl-].[Cl-]", "note": "[CaCl2]", "values": [{"measurement": "cell behavior (morphology)", "setting": "[1]; 1 mM CaCl2 in KSFM plus A83-01 and Y-27632", "value": "aggregate into tight clusters"}, {"measurement": "trans-epithelium electric resistance (TEER)", "setting": "[1]; high concentration (1 mM) in KSFM plus A 83-01 and Y-27632", "value": "increasing TEER"}, {"measurement": "epidermal-like structure formation (H&E)", "setting": "[2]; 1.5 mM CaCl2 in KSFM+A+Y, air-liquid-interface, day 14", "value": "differentiated into multi-layer structures"}, {"measurement": "tight junction formation (ZO-1 staining)", "setting": "[2]; CaCl2 raised to 1.5 mM in KSFM+A+Y", "value": "Tight junction formation was observed"}]}
{"smiles": "C[C@@H](N)[C@H]1CC[C@H](C(=O)Nc2ccncc2)CC1.Cl.Cl", "note": "[Y-27632, (R)-(+)-trans-4-(1-Aminoethyl)-N-(4-Pyridyl)cyclohexanecarboxamide dihydrochloride]", "values": [{"measurement": "hTERT expression", "setting": "[3]; early passage (p3)", "value": "slightly induced"}, {"measurement": "hTERT expression", "setting": "[3]; late passage (p6)", "value": "non-detectible"}, {"measurement": "hTERT expression", "setting": "[4]; early passage (p2)", "value": "induced"}, {"measurement": "hTERT expression", "setting": "[4]; late passage (p5)", "value": "non-detectible"}, {"measurement": "plating efficiency in the presence of A83-01", "setting": "[5]", "value": "ameliorated the low plating efficiency"}, {"measurement": "plating efficiency in the presence of A83-01", "setting": "[6]", "value": "ameliorated the low plating efficiency"}, {"measurement": "population doubling (PD) reached before cells entered senescence", "setting": "[7]; KSFM", "value": "> 20"}, {"measurement": "proliferation", "setting": "[7]; [12]", "value": "did not promote the proliferation"}, {"measurement": "total population doublings", "setting": "[7]; added to KSFM", "value": "slightly increased the total population doublings"}, {"measurement": "proliferation", "setting": "[8]; [12]", "value": "did not promote the proliferation"}, {"measurement": "total population doublings", "setting": "[8]; added to KSFM", "value": "slightly increased the total population doublings"}, {"measurement": "cell proliferation after 5 days", "setting": "[9]; KSFM plus compound alone (FIG. 17)", "value": "slight increase of cell proliferation"}, {"measurement": "total cell number after 5 days", "setting": "[9]; KSFM plus individual compound alone, 5 μM, 1 μM and 0.2 μM (FIG. 16)", "value": "slight increase of total cell numbers"}, {"measurement": "cell proliferation after 5 days", "setting": "[9]; used together with A83-01 in KSFM, 5 μM, 1 μM and 0.2 μM (FIG. 17)", "value": "synergistically increased"}, {"measurement": "cell growth rate", "setting": "[10]", "value": "No significant increase of cell growth rate"}]}
{"smiles": "CC(C)NCC(O)c1ccc(O)c(O)c1", "note": "(centres unmarked) [isoproterenol]", "values": [{"measurement": "cell growth relative to control", "setting": "[11]", "value": "further increased epithelial cells growth"}]}
